Key:
[1] = system: human volunteers; experiment: Phase I clinical studies, peroral administration; assay type: in vivo
[2] = Cardiovascular side effects on sublingual or buccal administration; assay type: in vivo
[3] = Absorption from aqueous compositions kept under the tongue or in the mouth; assay type: in vivo; conditions: aqueous compositions kept under the tongue or in the mouth of a patient
[4] = system: histamine; conditions: cited from earlier work
[5] = system: serotonin; conditions: cited from earlier work

## CN1C[C@@H]2c3ccccc3Oc3ccc(Cl)cc3[C@H]2C1 (relative stereo) [trans-5-chloro-2-methyl-2,3,3a,12b-tetrahydro-1H-dibenz[2,3:6,7]oxepino[4,5-c]pyrrole]
[1]
  Cardiotoxic effects: serious cardiotoxic effects, e.g. postural hypotension and/or impairment of baroreceptor functioning, occurred
[2]
  Cardiovascular side effects: substantially less cardiovascular side effects
[3]
  Absorption: rapidly absorbed
[4]
  Antihistamine activity: antihistamine and antiserotonin activities
[5]
  Antiserotonin activity: antihistamine and antiserotonin activities

Source: patent publication US5763476A, “Sublingual or buccal pharmaceutical composition” (priority 1994, dated 1998)
